Square brackets hold non-standard residues; d marks the D form. Peptide text beside a SMILES is read from it. * marks the point of attachment. 1Nal = N[C@@H](Cc1cccc2ccccc12)C(=O)O; Sta = CC(C)C[C@H](N)[C@@H](O)CC(=O)O; Cbz = O=C(OCc1ccccc1)*; NHBu = CCCCN*; NHNH2 = NN*

The first experiment deals with T1, human renin (Homo sapiens, UniProt P00797).
T1 sequence (P00797 67-406): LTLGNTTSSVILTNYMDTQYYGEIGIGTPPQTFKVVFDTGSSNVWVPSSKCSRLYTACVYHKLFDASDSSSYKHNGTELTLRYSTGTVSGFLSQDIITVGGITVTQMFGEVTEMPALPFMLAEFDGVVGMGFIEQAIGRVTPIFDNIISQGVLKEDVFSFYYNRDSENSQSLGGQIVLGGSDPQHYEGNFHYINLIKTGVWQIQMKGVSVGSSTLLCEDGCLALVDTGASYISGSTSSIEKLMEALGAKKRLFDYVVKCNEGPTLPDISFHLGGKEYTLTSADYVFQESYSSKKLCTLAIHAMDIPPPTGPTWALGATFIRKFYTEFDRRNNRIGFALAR
Put plainly: Inhibition of renin activity (human renin, sheep angiotensinogen). It counts as biochemical. As to conditions: concentration of test cpd. 1 × 10^-5 M, pH 7.3, 10 minutes at 37° C., mean of 3 or 4 experiments. The procedure: The ability of various compounds of the invention to inhibit the activity of renin was determined according to the following method, which follows essentially the procedure of Kokubu et al. [Hypertension, 5, 191-197 (1983)].
Specifically, each test compound was dissolved in 60% v/v aqueous ethanol. Human renin activity in the presence and absence of each compound was measured using sheep angiotensinogen. The total volume of 1 ml of assay mixture contained 0.1 mole/liter phosphate buffer (pH 7.3), human renin (equivalent to 0.5 ng angiotensin I per ml per minute), sheep angiotensinogen (equivalent to 200 ng angiotensin I), the indicated concentration of the test compound, 6% ethanol and angiotensinase inhibitors (10 mmole/liter sodium ethylenediaminetetraacetate and 3.4 mmole/liter 8-hydroxyquinoline). The mixture was allowed to react for 10 minutes at 37° C., and then the reaction was stopped by placing the reaction tube in a boiling water bath for 5 minutes. The mixture was then centrifuged and the supernatant (0.05-0.1 ml) was used to assay remaining angiotensin I.
An identical experiment was carried out, as a control, except that the test compound was omitted. From the values obtained were calculated the % inhibition of renin activity achieved by each test compound. The results are shown in the following Table, in which the compounds of the invention are identified by the numbers assigned to them in the foregoing list. The values given are the mean of 3 or 4 experiments.
As to `CC(C)C[C@H](NC(=O)[C@H](Cc1c[nH]cn1)NC(=O)[C@H](Cc1cccc2ccccc12)NC(=O)OCc1ccccc1)[C@@H](O)CC(=O)N1CCC(c2ccccc2)CC1` [Compound 36, 1-{4(S)-[N-benzyloxycarbonyl-3-(1-naphthyl)-L-alanyl-L-histidyl]amino-3(S)-hydroxy-6-methylheptanoyl}-4-phenylpiperidine], the “% Inhibition (human renin)” value turned out to be 84%. Same read-out and setting: for `CCC(C)CNC(=O)C[C@H](O)[C@H](CC(C)C)NC(=O)[C@@H](Cc1c[nH]cn1)NC(=O)[C@H](Cc1cccc2ccccc12)NC(=O)OCc1ccccc1` (stereo partly drawn) [Compound 93, 4(S)-[N-benzyloxycarbonyl-3-(1-naphthyl)-L-alanyl-D-histidyl]amino-3(S)-hydroxy-6-methyl-N-(2-methylbutyl)heptanamide] the value was 99%; for `CC(C)C[C@H](NC(=O)[C@H](Cc1c[nH]cn1)NC(=O)[C@H](Cc1cccc2ccccc12)NC(=O)OCc1ccccc1)[C@@H](O)CC(=O)NNC(=O)CCCc1ccccc1` [Compound 39, N^1 -{4(S)-[N-benzyloxycarbonyl-3-(1-naphthyl)-L-alanyl-L-histidyl]amino-3(S)-hydroxy-6-methylheptanoyl}-N^2-(4-phenylbutyryl)hydrazine], 84%. On the same count and under the same terms, to `CC[C@H](C)CNC(=O)C[C@H](O)[C@H](CC(C)C)NC(=O)[C@H](Cc1c[nH]cn1)NC(=O)[C@H](Cc1cccc2ccccc12)NC(=O)OCc1ccccc1` [Compound 65, 4(S)-[N-benzyloxycarbonyl-3-(1-naphthyl)-L-alanyl-L-histidyl]amino-3(S)-hydroxy-6-methyl-N-[S-(-)-2-methylbutyl]heptanamide] belongs 99%; to `COC(=O)[C@@H](O)[C@H](CC(C)C)NC(=O)[C@H](Cc1c[nH]cn1)NC(=O)[C@H](Cc1cccc2ccccc12)NC(=O)OCc1ccccc1` [Compound 62, methyl 3(S)-[N-benzyloxycarbonyl-3-(1-naphthyl)-L-alanyl-L-histidyl]amino-2(S)-hydroxy-5-methylhexanoate], 53%.

With `CC(C)C[C@H](NC(=O)[C@H](Cc1c[nH]cn1)NC(=O)[C@H](Cc1cccc2ccccc12)NC(=O)OCc1ccccc1)[C@@H](O)CC(=O)NN` [Compound 38, 4(S)-[N-benzyloxycarbonyl-3-(1-naphthyl)-L-alanyl-L-histidyl]amino-3(S)-hydroxy-6-methylheptanoic acid hydrazide] (Cbz-[1Nal]-His-[Sta]-NHNH2), the “% Inhibition (human renin)” value was 89%.

As for `CC[C@H](C)[C@@H](CO)NC(=O)C[C@H](O)[C@H](CC(C)C)NC(=O)[C@H](Cc1c[nH]cn1)NC(=O)[C@H](Cc1cccc2ccccc12)NC(=O)OCc1ccccc1` [Compound 67, N-{4(S)-[N-benzyloxycarbonyl-3-(1-naphthyl)-L-alanyl-L-histidyl]amino-3(S)-hydroxy-6-methylheptanoyl}-L-isoleucinol], the “% Inhibition (human renin)” value was 98%. As for `CCCCNC(=O)C[C@H](O)[C@H](CC(C)C)NC(=O)[C@H](Cc1c[nH]cn1)NC(=O)[C@H](Cc1cccc2ccccc12)NC(=O)OCc1ccccc1` [Compound 64, 4(S)-[N-benzyloxycarbonyl-3-(1-naphthyl)-L-alanyl-L-histidyl]amino-N-butyl-3(S)-hydroxy-6-methylheptanamide] (Cbz-[1Nal]-His-[Sta]-NHBu), the “% Inhibition (human renin)” value is 95%. Take `CCNC(=O)C[C@H](O)[C@H](CC(C)C)NC(=O)[C@H](Cc1c[nH]cn1)NC(=O)[C@H](Cc1cccc2ccccc12)NC(=O)OCc1ccccc1` [Compound 66, 4(S)-[N-benzyloxycarbonyl-3-(1-naphthyl)-L-alanyl-L-histidyl]amino-N-ethyl-3(S)-hydroxy-6-methylheptanamide] (Cbz-[1Nal]-His-[Sta]-NHEt): the “% Inhibition (human renin)” value is on record as 96%.

Take `CCOC(=O)C[C@H](O)[C@H](CC(C)C)NC(=O)[C@H](Cc1c[nH]cn1)NC(=O)[C@H](Cc1cccc2ccccc12)NC(=O)OCc1ccccc1` [Compound 5, ethyl 4(S)-[N-benzyloxycarbonyl-3-(1-naphthyl)-L-alanyl-L-histidyl]amino-3(S)-hydroxy-6-methylheptanoate] (Cbz-[1Nal]-His-[Sta]-OEt): the “% Inhibition (human renin)” value was 79%. The same measure, in the same setting: to `CC(C)C[C@H](NC(=O)[C@H](Cc1c[nH]cn1)NC(=O)[C@H](Cc1cccc2ccccc12)NC(=O)OCc1ccccc1)[C@@H](O)CC(=O)O` [Compound 3, 4(S)-[N-benzyloxycarbonyl-3-(1-naphthyl)-L-alanyl-L-histidyl]amino-3(S)-hydroxy-6-methylheptanoic acid] (Cbz-[1Nal]-His-[Sta]-OH) belongs 72%.

The experiment is the same for the next values; noted with them: concentration of test cpd. 1 × 10^-6 M, pH 7.3, 10 minutes at 37° C., mean of 3 or 4 experiments.
Consider `CCC(C)CNC(=O)C[C@H](O)[C@H](CC(C)C)NC(=O)[C@H](CC(C)C)NC(=O)[C@H](Cc1cccc2ccccc12)NC(=O)OCc1ccccc1` (stereo partly drawn) [Compound 207, N-(2-methylbutyl)-4(S)-[N-benzyloxycarbonyl-3-(1-naphthyl)-L-alanyl-L-leucyl]amino-3(S)-hydroxy-6-methylheptanamide], for which the “% Inhibition (human renin)” value is 98.4%. Still for that read-out and setting: to `CCC(C)CNC(=O)C[C@H](O)[C@H](CC(C)C)NC(=O)C(Cc1cscn1)NC(=O)[C@H](Cc1cccc2ccccc12)NC(=O)OCc1ccccc1` (mixture of isomers) [Compound 238, N-(2-methylbutyl)-4(S)-[N-benzyloxycarbonyl-3-(1-naphthyl)-L-alanyl-3-(1,3-thiazol-4-yl)-DL-alanyl]amino-3(S)-hydroxy-6-methylheptanamide] belongs 98.2%; to `CC[C@H](C)[C@@H](CO)NC(=O)C[C@H](O)[C@H](CC(C)C)NC(=O)[C@H](CC(C)C)NC(=O)[C@H](Cc1cccc2ccccc12)NC(=O)OCc1ccccc1` [Compound 208, N-{4(S)-[N-benzyloxycarbonyl-3-(1-naphthyl)-L-alanyl-L-leucyl]amino-3(S)-hydroxy-6-methylheptanoyl}-L-isoleucinol], 99.1%.
